Source: patent US5070210A, “Novel ketenimines as intermediates for insecticides” (ICI Americas Inc., priority 1990, dated 1991)

Columns and labels:
Assay type in all cases: in vivo
[1] = tested on: Tobacco Budworm [Heliothis virescens (Fabricius)] larvae; test: Tobacco budworm contact test; settings: second-instar larvae, percent in solution, 5 days
In short: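 Cotton cotyledons dipped 2–3 s in compound in 50-50 acetone-water, dried, then infested with 5 second-instar larvae and held 5 days at high humidity. Mortality scored; LC50 from dosage-mortality curves, expressed as percent compound in solution, concentrations from 0.1% downward.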

[2] = tested on: Maize weevil [Sitophilus Zeamais (Motschulsky)]; test: Maize weevil insecticidal test; settings: adult weevils, percent in solution; 48 hours
In short: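 LC50, in percent of compound in solution, was derived from dosage-mortality curves after 48 h at about 25 °C. Ten adult weevils per container fed on four corn seeds briefly immersed in acetone:water (50:50) solutions of up to 0.01% and dried.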

[3] = tested on: Beet Armyworm (Spodoptera exigua); test: Beet armyworm insecticidal test; settings: second-instar larvae, percent in solution; five days
Method: The compounds in Tables 1 and 2 above were tested for insecticidal activity using the following testing procedures. LC50 values, based on the results of these tests and calculated according to dosage-mortality curves, are expressed in Table 3.
Beet Armyworm (Spodoptera exigua):
Test compounds were diluted in a 50-50 acetone-water solution. Young leaves of sugar beets (Beta vulgaris) were immersed in the test solutions for 2-3 seconds and placed on a wire screen to dry. The dried leaves were placed in petri dishes containing a moistened filter paper and infested with five second-instar beet armyworm larvae. The dishes were placed in a high humidity chamber. Mortality of the larvae was recorded five days later. Test concentrations ranged from 0.1% downward. The LC-50 values are expressed below in Table 3 under the heading "BAW" in terms of percent of the test compound in solution.

[4] = tested on: Cabbage Looper [Trichoplusia ni (Hubner)]; test: Cabbage looper insecticidal test; settings: second-instar larvae, percent in solution; 3-5 days
In short: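 Compounds in 50-50 acetone-water were applied by dipping squash cotyledons (about 1×1.5 in) for 2-3 s; dried leaves went into petri dishes on moist filter paper with 5 second-instar larvae under high humidity. Mortality was scored after 3-5 days; LC50 from dosage-mortality curves, as percent compound in solution.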

[5] = tested on: Aster Leafhopper [Macrosteles fascifrens (Stal)]; test: Aster leafhopper insecticidal test; settings: adults/nymphs, percent in solution; 48 hours
In short: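 Three ~10 cm oat seedlings per cup were dipped 2-3 seconds in 50-50 acetone-water compound solutions, dried, and caged with ten adult/nymph leafhoppers. Mortality was counted after 48 hours at concentrations from 0.05% downward. LC50, as percent compound in solution, came from dosage-mortality curves.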

[6] = tested on: Tobacco Budworm [Heliothis virescens (Fabricius)] eggs; test: Tobacco budworm egg test; settings: 2-day old eggs, percent in solution
In short: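 Paper towel patches bearing 2-day old eggs were dipped in acetone solutions of compound, then set in petri dishes over larval rearing medium at 78° F. Mortality was scored once all control eggs had hatched and larvae were feeding. LC50, from dosage-mortality curves, is given as percent compound in solution.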

[7] = tested on: Housefly [Musca domestica]; test: Housefly insecticidal test; settings: μg per 25 female flies; mortality after 48 hours
In short: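 Residual contact test: acetone dilution, 0.01% peanut oil spreader, solvent evaporated; 25 ♀ flies (1-2 d old) per cage; sugar-water plug; 48 h mortality read. LC50 in μg/25 female flies, from dose-mortality curves; top dose 100 μg/25 flies.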

CC(C)C(=Nc1ccc(Cl)c(Cl)c1)OCc1cccc(Oc2ccccc2)c1 [Compound 9]
LC50, TBW, C (TBW-C) [1]: 0.0008% | LC50, MW [2]: > 0.01% | LC50, BAW [3]: 0.0005% | LC50, CL [4]: 0.001% | LC50, LH [5]: 0.0003% | LC50, TBW, E (TBW-E) [6]: 0.02% | LC50, HF [7]: 14 µg

FC(F)(F)c1ccc(N=C(OCc2cccc(Oc3ccccc3)c2)C(Cl)Cl)cc1 [Compound 61]
LC50, TBW, C (TBW-C) [1]: 0.03% | LC50, MW [2]: > 0.01% | LC50, BAW [3]: 0.002% | LC50, CL [4]: 0.001% | LC50, LH [5]: > 0.05% | LC50, TBW, E (TBW-E) [6]: 0.03% | LC50, HF [7]: 29 µg

CC(C)C(=Nc1cc(F)cc(C(F)(F)F)c1)OCc1cccc(Oc2ccccc2)c1 [Compound 77]
LC50, TBW, C (TBW-C) [1]: 0.0004% | LC50, MW [2]: > 0.01% | LC50, BAW [3]: 0.004% | LC50, CL [4]: 0.0005% | LC50, LH [5]: 0.0002% | LC50, TBW, E (TBW-E) [6]: 0.03% | LC50, HF [7]: 10 µg

ClCC(=Nc1ccc(Cl)cc1)OCc1cccc(Oc2ccccc2)c1 [Compound 31]
LC50, TBW, C (TBW-C) [1]: 0.01% | LC50, MW [2]: > 0.01% | LC50, BAW [3]: 0.08% | LC50, CL [4]: 0.05% | LC50, LH [5]: > 0.05% | LC50, TBW, E (TBW-E) [6]: > 0.1% | LC50, HF [7]: > 100 µg

FC(F)(F)c1ccc(N=C(OCc2cccc(Oc3ccccc3)c2)C2CC2)cc1 [Compound 62]
LC50, TBW, C (TBW-C) [1]: 0.0015% | LC50, MW [2]: > 0.01% | LC50, BAW [3]: 0.02% | LC50, CL [4]: 0.005% | LC50, LH [5]: > 0.05% | LC50, TBW, E (TBW-E) [6]: 0.025% | LC50, HF [7]: 20 µg

CC(C)C(=Nc1cccc(F)c1)OCc1cccc(Oc2ccccc2)c1 [Compound 47]
LC50, TBW, C (TBW-C) [1]: 0.002% | LC50, BAW [3]: 0.002% | LC50, CL [4]: 0.002% | LC50, LH [5]: 0.0003% | LC50, TBW, E (TBW-E) [6]: 0.06% | LC50, HF [7]: 10 µg

CC(C)C(=Nc1ccc(C(C)C)cc1)OCc1cccc(Oc2ccccc2)c1 [Compound 144]
LC50, TBW, C (TBW-C) [1]: 0.006% | LC50, MW [2]: > 0.01% | LC50, BAW [3]: > 0.01% | LC50, CL [4]: 0.002% | LC50, LH [5]: 0.0006% | LC50, TBW, E (TBW-E) [6]: 0.05% | LC50, HF [7]: 100 µg

CC(C)C(=Nc1ccc2c(c1)OCO2)OCc1cccc(Oc2ccc(F)cc2)c1 [Compound 176]
LC50, TBW, C (TBW-C) [1]: 0.002% | LC50, MW [2]: 0.009% | LC50, BAW [3]: 0.0035% | LC50, CL [4]: 0.0005% | LC50, LH [5]: > 0.05% | LC50, TBW, E (TBW-E) [6]: 0.05% | LC50, HF [7]: 1.8 µg

Clc1ccc(N=C(OCc2cccc(Oc3ccccc3)c2)C(Cl)Cl)c(Cl)c1 [Compound 4]
LC50, TBW, C (TBW-C) [1]: 0.05% | LC50, BAW [3]: 0.04% | LC50, CL [4]: 0.007% | LC50, LH [5]: > 0.05% | LC50, TBW, E (TBW-E) [6]: > 0.1% | LC50, HF [7]: 100 µg

CC(Cl)(Cl)C(=Nc1ccc(Cl)cc1)OCc1cccc(Oc2ccccc2)c1 [Compound 3]
LC50, TBW, C (TBW-C) [1]: 0.009% | LC50, MW [2]: > 0.01% | LC50, BAW [3]: 0.015% | LC50, CL [4]: 0.012% | LC50, LH [5]: > 0.05% | LC50, TBW, E (TBW-E) [6]: > 0.1% | LC50, HF [7]: 50 µg

CC(C)C(=Nc1ccc(Cl)cc1)OCc1cccc(Oc2ccccc2)c1 [Compound 2]
LC50, TBW, C (TBW-C) [1]: 0.0009% | LC50, BAW [3]: 0.01% | LC50, CL [4]: 0.006% | LC50, LH [5]: 0.0003% | LC50, TBW, E (TBW-E) [6]: 0.04% | LC50, HF [7]: 4.5 µg

CC(C)C(=Nc1ccc(F)c(Cl)c1)OCc1ccc(F)c(Oc2ccc(F)c(F)c2)c1 [Compound 346]
LC50, TBW, C (TBW-C) [1]: 0.0002% | LC50, MW [2]: > 0.01% | LC50, BAW [3]: > 0.1% | LC50, CL [4]: > 0.1% | LC50, LH [5]: 0.05% | LC50, TBW, E (TBW-E) [6]: > 0.1% | LC50, HF [7]: 7.2 µg

CC(Cl)C(=Nc1ccc(Cl)cc1)OCc1cccc(Oc2ccccc2)c1 (stereo not drawn) [Compound 33]
LC50, TBW, C (TBW-C) [1]: 0.0025% | LC50, MW [2]: > 0.01% | LC50, BAW [3]: 0.02% | LC50, CL [4]: 0.01% | LC50, LH [5]: > 0.05% | LC50, TBW, E (TBW-E) [6]: > 0.1% | LC50, HF [7]: 17 µg

FC(F)(F)c1ccc(N=C(OCc2cccc(Oc3ccccc3)c2)C2CC2)c(Cl)c1 [Compound 65]
LC50, TBW, C (TBW-C) [1]: 0.1% | LC50, BAW [3]: > 0.1% | LC50, CL [4]: < 0.01% | LC50, LH [5]: > 0.05% | LC50, TBW, E (TBW-E) [6]: > 0.1% | LC50, HF [7]: > 100 µg

Clc1ccc(N=C(OCc2cccc(Oc3ccccc3)c2)C(Cl)Cl)cc1 [Compound 29]
LC50, TBW, C (TBW-C) [1]: 0.001% | LC50, MW [2]: > 0.01% | LC50, BAW [3]: 0.003% | LC50, CL [4]: 0.002% | LC50, LH [5]: 0.003% | LC50, TBW, E (TBW-E) [6]: 0.01% | LC50, HF [7]: 5 µg

CC(C)C(=Nc1cccc(C(F)(F)F)c1)OCc1ccc(F)c(Oc2ccccc2)c1 [Compound 80]
LC50, TBW, C (TBW-C) [1]: 0.00075% | LC50, BAW [3]: 0.0018% | LC50, CL [4]: 0.0003% | LC50, LH [5]: 0.0001% | LC50, TBW, E (TBW-E) [6]: 0.005% | LC50, HF [7]: 4.5 µg

CC(C)C(=Nc1cccc(I)c1)OCc1ccc(F)c(Oc2ccc(F)cc2)c1 [Compound 279]
LC50, TBW, C (TBW-C) [1]: 0.007% | LC50, MW [2]: > 0.01% | LC50, BAW [3]: 0.0025% | LC50, CL [4]: 0.00008% | LC50, LH [5]: 0.0003% | LC50, TBW, E (TBW-E) [6]: 0.016% | LC50, HF [7]: 4 µg

CC(C)C(=Nc1ccc2c(c1)OC(F)(F)O2)OCc1ccc(F)c(Oc2ccc(F)cc2)c1 [Compound 284]
LC50, TBW, C (TBW-C) [1]: 0.0002% | LC50, MW [2]: 0.0075% | LC50, BAW [3]: 0.0025% | LC50, CL [4]: 0.00005% | LC50, LH [5]: 0.0003% | LC50, HF [7]: 39 µg

CC(C)C(=Nc1ccc(Cl)c(C(F)(F)F)c1)OCc1cccc(Oc2ccccc2)c1 [Compound 71]
LC50, TBW, C (TBW-C) [1]: 0.0008% | LC50, BAW [3]: 0.0004% | LC50, CL [4]: 0.0006% | LC50, LH [5]: 0.002% | LC50, TBW, E (TBW-E) [6]: 0.065% | LC50, HF [7]: 50 µg

Fc1ccc(N=C(OCc2cccc(Oc3ccccc3)c2)C2CC2)cc1 [Compound 45]
LC50, TBW, C (TBW-C) [1]: 0.01% | LC50, BAW [3]: 0.1% | LC50, CL [4]: 0.03% | LC50, LH [5]: > 0.05% | LC50, TBW, E (TBW-E) [6]: 0.08% | LC50, HF [7]: 30 µg
